{"source": "patent US5374713A", "about": "“Peptide inhibitors of phospholipase A2 purified from inflammatory sites” (Teijin Limited, priority 1990, dated 1994)", "key": {"[1]": {"molecular_target": "T1, phospholipase A2 from human inflammatory sites (the joint fluid from patients with rheumatoid arthritis) (Homo sapiens, UniProt P14555)", "T1 construct": "from human inflammatory sites (the joint fluid from patients with rheumatoid arthritis); from tissue; host or cells: joint fluid from patients with rheumatoid arthritis", "T1 sequence (P14555 21-144)": "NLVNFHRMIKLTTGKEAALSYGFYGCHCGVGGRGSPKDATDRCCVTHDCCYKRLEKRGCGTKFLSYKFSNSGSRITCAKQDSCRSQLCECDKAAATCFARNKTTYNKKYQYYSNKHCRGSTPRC", "assay": "Determination of inhibitory activity against phospholipase A2 (human inflammatory sites)", "format": "biochemical", "conditions": "phosphatidylethanolamine substrate, pH 9.0, 37° C., 10 minutes", "experimental": "(§1) The activity-measuring system was prepared by adding distilled water to 100 mM Tris-HCl (ph 9.0), 4 mM calcium chloride, 0.1 mM phosphatidylethanolamine (2,000 dpm/nmol), and 10 μl sample to adjust the total volume to 240 μl, and finally 10 μl of 0.1 ng/μ1 phospholipase A2 was added. The phospholipases A2 used were from human inflammatory sites (the joint fluid from patients with rheumatoid arthritis) (Hara et al., J. Biochem., 104, 326-328, 1988), rat inflammatory sites (Chang et al., J. Biochem., 102, 147-154, 1987), and porcine pancreas (Boehringer Manheim Co.). Phosphatidylethanolamine was purified from Escherichia coli cultured in a medium to which acetic acid was added.\n(§2) The reactions were conducted at 37° C. with stirring for 10 minutes. The termination of the reaction and the extraction of fatty acids generated were carried out by the Dole's method (Dole et al., J. Biol. Chem., 235, 2595-2599, 1960) and the extracted fatty acid was determined with a scintillation counter.\n(§3) The lyophilyzed sample obtained in Example 1 was dissolved again in 50% acetone-0.1% trifluoroacetic acid to adjust the concentration to 10 mg/ml. The solution was further diluted stepwise with the same buffer and the inhibitory activity of phospholipase A2 from inflammatory sites was determined at individual concentrations."}, "[2]": {"molecular_target": "T2, phospholipase A2 from rat inflammatory sites (Rattus norvegicus, UniProt P14423)", "T2 construct": "rat inflammatory sites (Chang et al., J. Biochem., 102, 147-154, 1987); from tissue", "T2 sequence (P14423 22-146)": "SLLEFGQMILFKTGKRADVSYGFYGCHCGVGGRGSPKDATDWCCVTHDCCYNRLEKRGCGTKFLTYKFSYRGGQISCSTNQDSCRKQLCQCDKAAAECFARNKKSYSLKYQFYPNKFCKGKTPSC", "assay": "Determination of inhibitory activity against phospholipase A2 (rat inflammatory sites)", "format": "biochemical", "conditions": "phosphatidylethanolamine substrate, pH 9.0, 37° C., 10 minutes", "experimental": "as §1, §2, §3"}}, "note": "pIC50: −log10 of the molar value. Ends that are not written are not given here.", "data": [{"sequence": "QKDAPDHQELNLDVSLQLPSR", "values": [{"measurement": "pIC50", "setting": "[1]", "result": "~6.30"}, {"measurement": "pIC50", "setting": "[2]", "result": "~6.30"}]}]}
